From publication PMC5149017, “Synthesis and Acetylcholinesterase Inhibitory Evaluation of 4-(1,3-Dioxoisoindolin-2-yl)-N-Phenyl Benzamide Derivatives as Potential Anti-Alzheimer Agents” (Iranian Journal of Pharmaceutical Research : IJPR, 2016)

Target: T1, acetylcholinesterase from electric eel source (AChE, E.C. 3.1.1.7, Type V-S) (Electrophorus electricus, UniProt O42275)
T1 construct: Acetylcholinesterase enzyme extracted from electric eel was utilized; purchased Sigma-Aldrich (Steinheim, Germany) Type V-S; host or cells: electric eel tissue (extracted)
Test: biochemical
Conditions: Ellman test, preincubation 15 min at 25 °C, pH 8.0, triplicate, IC50 ± SD, read-out: IC50 (enzymatic assay, acetylcholinesterase inhibition)
Method: Lyophilized powder of acetylcholinesterase from electric eel source (AChE, E.C. 3.1.1.7, Type V-S, 1000 unit) was purchased from Sigma-Aldrich (Steinheim, Germany). 5,5′-Dithiobis-(2-nitrobenzoic acid, DTNB), potassium dihydrogen phosphate (KH2PO4), dipotassium hydrogen phosphate (K2HPO4), potassium hydroxide (KOH), sodium hydrogen carbonate (NaHCO3), and acetylthiocholine iodide were purchased from Fluka (Buchs, Switzerland).
According to the literature, the Ellman test was performed for assessment of the anticholinesterase activity of intended compounds in-vitro. […] After rapid and immediate mixing the change of absorption was measured at 412 nm.
The blank reading contained 3 mL buffer, 200 µL water, 100 µL DTNB and 20 µL substrate. The reaction rates were calculated, and the percent inhibition of test compounds was determined. Each concentration was analyzed in triplicate, and IC50 ± SD values were determined graphically from inhibition curves (log inhibitor concentration vs. percent of inhibition) ([22], [23]).
Acetylcholinesterase enzyme extracted from electric eel was utilized for assessment of the potency of intended compounds.

T1 sequence (O42275 24-633): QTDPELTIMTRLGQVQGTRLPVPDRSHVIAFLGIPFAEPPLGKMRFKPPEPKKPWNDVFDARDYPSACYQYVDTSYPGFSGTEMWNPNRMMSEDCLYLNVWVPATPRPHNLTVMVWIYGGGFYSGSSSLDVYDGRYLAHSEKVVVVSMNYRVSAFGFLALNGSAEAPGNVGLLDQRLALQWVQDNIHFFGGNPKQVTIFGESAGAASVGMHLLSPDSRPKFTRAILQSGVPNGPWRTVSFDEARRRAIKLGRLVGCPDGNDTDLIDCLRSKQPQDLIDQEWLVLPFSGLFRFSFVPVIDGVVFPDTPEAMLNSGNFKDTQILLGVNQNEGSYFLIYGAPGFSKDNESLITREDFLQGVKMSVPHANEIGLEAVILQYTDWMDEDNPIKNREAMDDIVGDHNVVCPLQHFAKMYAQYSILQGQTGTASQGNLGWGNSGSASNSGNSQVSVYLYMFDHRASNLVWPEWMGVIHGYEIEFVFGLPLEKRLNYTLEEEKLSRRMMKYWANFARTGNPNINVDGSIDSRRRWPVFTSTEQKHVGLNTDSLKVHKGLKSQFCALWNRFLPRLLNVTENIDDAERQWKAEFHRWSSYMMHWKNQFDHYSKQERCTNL

| Compound | IC50 [µM] |
| --- | --- |
| O=C(Nc1cccc(Cl)c1)c1ccc(N2C(=O)c3ccccc3C2=O)cc1 [Compound 4a, N-(3-Chlorophenyl)-4-(1,3-dioxoisoindolin-2-yl)benzamide] | > 250 |
| O=C(Nc1ccc(Cl)cc1)c1ccc(N2C(=O)c3ccccc3C2=O)cc1 [Compound 4b, N-(4-Chlorophenyl)-4-(1,3-dioxoisoindolin-2-yl)benzamide] | > 250 |
| O=C(Nc1ccccc1F)c1ccc(N2C(=O)c3ccccc3C2=O)cc1 [Compound 4c, 4-(1,3-Dioxoisoindolin-2-yl)-N-(2-fluorophenyl)benzamide] | > 250 |
| O=C(Nc1cccc(F)c1)c1ccc(N2C(=O)c3ccccc3C2=O)cc1 [Compound 4d, 4-(1,3-Dioxoisoindolin-2-yl)-N-(3-fluorophenyl)benzamide] | > 250 |
| COc1cccc(NC(=O)c2ccc(N3C(=O)c4ccccc4C3=O)cc2)c1 [Compound 4e, 4-(1,3-Dioxoisoindolin-2-yl)-N-(3-methoxyphenyl)benzamide] | > 250 |
| COc1ccc(NC(=O)c2ccc(N3C(=O)c4ccccc4C3=O)cc2)cc1 [Compound 4f, 4-(1,3-Dioxoisoindolin-2-yl)-N-(4-methoxyphenyl)benzamide] | > 250 |
| O=C(Nc1ccccc1[N+](=O)[O-])c1ccc(N2C(=O)c3ccccc3C2=O)cc1 [Compound 4g, 4-(1,3-Dioxoisoindolin-2-yl)-N-(2-nitrophenyl)benzamide] | 1.1 ± 0.25 |
| O=C(Nc1ccc([N+](=O)[O-])cc1)c1ccc(N2C(=O)c3ccccc3C2=O)cc1 [Compound 4h, 4-(1,3-Dioxoisoindolin-2-yl)-N-(4-nitrophenyl)benzamide] | > 250 |
